Measured values published in patent US5041557A, “Furan derivatives” (Laboratorios Vinas S.A., priority 1989, dated 1991).

Legend:
[1] = system: ethanol induced ulcers (gastric mucous membrane); test: Necrosing agent model: ethanol induced ulcers in the rat; type: in vivo; conditions: for mm lesion (lesion index, mm of ulcer) / % inhibition (ulcer inhibition percentage versus control): ethanol, LV-208 100 mg/kg, Rn equimolar dose; for mm lesion (lesion index, mm of ulcer): mean ± error of the mean, control 82.0 ± 10.1, LV-208: p < 0.001 versus control, p < 0.05 versus Rn (t test); for % inhibition (ulcer inhibition percentage versus control): versus control group; for protection against the ethanol induced aggression: rat, equimolar doses of LV-208 and Rn, result in words
Protocol: (§1) As stated above, the formula I compounds have shown a potent antiulcer activity. Thus the inhibition of histamine induced gastric secretion "in vivo" in rats, after intraperitoneal administration of these zinc-furan compounds at dose levels of 0.5; 1; 2 and 4 mg/kg reaches pH recovery levels, increasing with the dose, of 100%.
Particularly, the antiulcer activity of the compound LV-208 has been studied with evaluation of the secretion inhibiting and gastric mucous membrane protecting activity in the rat.
The activity of LV-208 was compared with the activity of Rn at equimolar doses using the necrosing agent model, ethanol in this case, described by Robert et al. (Gastroenterology, 77: 433, 1979), versus a control group administered excipient.
The following Table gives the lesion indexes (in mm of ulcer) of the three groups studied, as well as the ulcer inhibition percentages of the treated groups versus the control group (mean values±the error of the mean).

[2] = system: histamine induced gastric acid secretion; test: "In vivo" histamine induced gastric acid secretion model in the rat; conditions: Wistar rats, intraperitoneal
Protocol: as §1
This activity was measured in Wistar rats having a body weight of 240±20 g. An endovenous perfusion of a histamine solution stimulated the gastric secretion producing a drop in the intragastric pH. LV-208 was thereafter administered intraperitoneally and the increase in the gastric pH that this produced was evaluated. An ED50 of 0.8 mg/kg and recovery of 100% at a dose of 4 mg/kg was obtained by a dose-response curve.

Row | Structure (SMILES) | mm lesion (lesion index, mm of ulcer) [1] [mm] | % inhibition (ulcer inhibition percentage versus control) [1] [%] | protection against the ethanol induced aggression [1] | recovery (gastric pH) ([2]; dose of 4 mg/kg) [%] | ED50 (increase in gastric pH, inhibition of histamine induced gastric acid secretion) ([2]; endovenous histamine perfusion, dose-response curve) [mg/kg]
1 | CNC(=C[N+](=O)[O-])NCCSCc1ccc(CN(C)C)o1 [Rn, N,N-dimethyl-5-(2-(1-methylamino-2-nitrovinylamino)ethylthiomethyl)furfurylamine, reference compound] | 40.6 ± 15.0 | 50.5 | discreet protection |  | 
2 | CNC(=C[N+](=O)[O-])NCCSCc1ccc(CN(C)C)o1.[Cl][Zn][Cl] [LV-208] | 4.8 ± 1.8 | 94.1 | practically complete protection | 100 | 0.8
